According to patent US20230114728A1 (Venatorx Pharmaceuticals, Inc., priority 2019, published 2023):

Experiments:
E. coli K12 PBP2 = biological target: T1, E. coli K12 PBP2 (Escherichia coli, UniProt P0AD65); assay: Bocillin-FL fluorescence polarization competition binding assay, E. coli PBP2
T1 construct: made in house
Source text: (§1) Example I: Experimental Method for Penicillin-Binding Protein Binding Assays with Bocillin-FL Via Fluorescence Polarization
(§2) To determine the ability of boronic acid-based test PBP inhibitors to bind Penicillin Binding Proteins (PBPs), Bocillin-FL (fluorescently-labeled penicillin V; ThermoFisher Scientific) was used in a fluorescence polarization (FP) competition binding assay to assess inhibitor binding to PBP2, PBP3 or PBP4 from Escherichia coli (K12), PBP3 from Pseudomonas aeruginosa (PA01), PBP1a, PBP2 and PBP3 from Acinetobacter baumannii (ATCC 19606), and PBP2 from Neiserria gonorrheae (FA19). PBPs were cloned and purified as described previously (E. coli PBPs, King, D. T, et al., ACS Infectious Diseases 2015, 1, 175-184; P. aeruginosa PBP3, Han et. al., PNAS 2010, 107 (51), 22002-22007; A. baumannii PBPs, Penwell et. al., Antimicrob. Agents Chemother. 2015, 59 (3), 1680-1689; N. gonorrhoeae PBP2, Singh et. al., J Biol. Chem. 2019, 294 (38), 14020-14032). To establish assay conditions for competition binding, enzyme titration/saturation binding experiments were initially performed. Bocillin-FL was prepared at 0.2 μM in a buffer comprised of 50 mM Hepes (pH 8.0), 300 mM NaCl and 5% (v/v) glycerol for reactions with E. coli, P. aeruginosa and N. gonorrhoeae PBPs, and 25 mM Tris (pH 8.0), 200 mM NaCl and 10% (v/v) glycerol and 0.005% (v/v) Tween 20 for reactions with A. baumannii PBPs. Saturation binding was performed by mixing 40 μl of PBP solutions ranging in concentrations from 0-24 μM with 40 μl of the 0.2 μM Bocillin-FL solution, in individual wells of a black 384-well microplate. FP was measured immediately upon mixing (Excitation, 490 nm; Emission, 520 nm; g-factor, 0.96), using a Cytation3 (BioTek) microplate reader and measured continuously for up to 120 minutes. […] Bocillin-FL was added and the FP immediately measured for up to 60 minutes (90 minutes for E. coli PBP2). […]

E. coli K12 PBP1b = biological target: T2, E. coli K12 PBP1b (Escherichia coli, UniProt P02919); assay: Radioligand competition binding assay with 14C-labeled boronic acid probe, E. coli PBP1b; details: competition binding assay using 14C-labeled boronic acid probe; read-out: E. coli K12 PBP1b EC50
T2 construct: made in house
Source text: Example II: Experimental Method to Assess Binding to Penicillin-Binding Proteins: Radioligand Competition Binding Assay
To determine the ability of boronic acid-based test PBP inhibitors to bind Penicillin Binding Proteins (PBPs), a radio-labelled boronic acid PBP inhibitor:
was used in competition binding assays to determine boronic acid PBP inhibitor binding to PBP1a or PBP1b from Escherichia coli. PBP1a and PBP1b were purified as described previously (Bertsche, U.; et al., J Biol. Chem. 2005, 280 (45), 38096-38101; Born, P.; et al., J Biol. Chem. 2006. 281 (37), 26985-26993). To establish assay conditions for competition binding, an enzyme titration/saturation binding experiment was performed. Saturation binding was performed in a buffer comprised of 20 mM Tris (pH 7.5), 500 mM NaCl and 0.1% (v/v) TritonX-100, with PBP1a/PBP1b at a final concentration of 0.1 μM and Compound A at final concentrations ranging from 0-100 μM. Mixtures were incubated for 60 minutes, then applied to Zeba Spin Desalting columns or plates (ThermoFisher Scientific) and centrifuged at 1000-1500×g for 2 minutes. The flow through, containing PBP bound with Compound A, was recovered and 100 μL mixed with 5 mL of UltimaGold liquid scintillation cocktail (Perkin Elmer), and the radioactivity counted using a Beckman Coulter LS 6500 Multipurpose scintillation counter. PBP binding of Compound A approached saturation at 20 μM of ^14C-labeled probe. The competition binding assay was validated using the beta-lactam ampicillin, with Compound A at a final concentration of 20 μM, PBP1a/PBP1b at a final concentration of 0.1 μM. PBP1a/PBP1b was incubated with ampicillin in a 96-well microplate for 60 minutes, then Compound A was added and the mixtures incubated for an additional 60 minutes. The mixtures were then applied to Zeba Spin desalting plates and centrifuged at 1000×g for 2 minutes. The flow through was recovered and 100 μl mixed with 5 ml of UltimaGold liquid scintillation cocktail and the radioactivity counted. […] Binding assays with boronic acid PBP inhibitors were performed in an identical fashion. […]

E. coli K12 PBP4 = biological target: T3, E. coli K12 PBP4 (Escherichia coli, UniProt P24228); assay: Bocillin-FL fluorescence polarization competition binding assay, E. coli PBP4; details: fluorescence polarization competition binding assay using Bocillin-FL; read-out: E. coli K12 PBP4 Potency (EC50)
T3 construct: made in house
Source text: as §1, §2

T2 sequence (P02919 whole entry): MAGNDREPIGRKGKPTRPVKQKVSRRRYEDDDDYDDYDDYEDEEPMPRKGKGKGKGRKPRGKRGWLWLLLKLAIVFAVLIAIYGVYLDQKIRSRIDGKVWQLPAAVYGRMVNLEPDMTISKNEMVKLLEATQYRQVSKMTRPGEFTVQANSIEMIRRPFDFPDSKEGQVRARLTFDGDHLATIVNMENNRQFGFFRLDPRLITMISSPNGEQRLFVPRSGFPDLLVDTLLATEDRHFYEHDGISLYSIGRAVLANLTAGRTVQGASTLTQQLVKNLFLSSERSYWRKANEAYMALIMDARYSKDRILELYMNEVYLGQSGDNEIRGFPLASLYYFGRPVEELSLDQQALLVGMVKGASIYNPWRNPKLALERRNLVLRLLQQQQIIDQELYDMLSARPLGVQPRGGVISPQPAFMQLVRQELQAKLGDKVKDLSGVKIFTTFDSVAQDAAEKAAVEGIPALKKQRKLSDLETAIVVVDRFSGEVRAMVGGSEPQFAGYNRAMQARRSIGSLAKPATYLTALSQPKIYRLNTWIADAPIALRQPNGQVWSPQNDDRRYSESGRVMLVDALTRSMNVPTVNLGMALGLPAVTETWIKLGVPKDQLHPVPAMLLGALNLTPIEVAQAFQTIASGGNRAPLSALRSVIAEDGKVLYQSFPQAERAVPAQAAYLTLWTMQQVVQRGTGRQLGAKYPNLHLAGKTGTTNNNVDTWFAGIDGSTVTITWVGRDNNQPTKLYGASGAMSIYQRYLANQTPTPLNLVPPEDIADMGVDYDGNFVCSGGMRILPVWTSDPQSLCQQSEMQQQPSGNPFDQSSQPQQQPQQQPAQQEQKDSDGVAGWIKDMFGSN
T1 sequence (P0AD65 whole entry): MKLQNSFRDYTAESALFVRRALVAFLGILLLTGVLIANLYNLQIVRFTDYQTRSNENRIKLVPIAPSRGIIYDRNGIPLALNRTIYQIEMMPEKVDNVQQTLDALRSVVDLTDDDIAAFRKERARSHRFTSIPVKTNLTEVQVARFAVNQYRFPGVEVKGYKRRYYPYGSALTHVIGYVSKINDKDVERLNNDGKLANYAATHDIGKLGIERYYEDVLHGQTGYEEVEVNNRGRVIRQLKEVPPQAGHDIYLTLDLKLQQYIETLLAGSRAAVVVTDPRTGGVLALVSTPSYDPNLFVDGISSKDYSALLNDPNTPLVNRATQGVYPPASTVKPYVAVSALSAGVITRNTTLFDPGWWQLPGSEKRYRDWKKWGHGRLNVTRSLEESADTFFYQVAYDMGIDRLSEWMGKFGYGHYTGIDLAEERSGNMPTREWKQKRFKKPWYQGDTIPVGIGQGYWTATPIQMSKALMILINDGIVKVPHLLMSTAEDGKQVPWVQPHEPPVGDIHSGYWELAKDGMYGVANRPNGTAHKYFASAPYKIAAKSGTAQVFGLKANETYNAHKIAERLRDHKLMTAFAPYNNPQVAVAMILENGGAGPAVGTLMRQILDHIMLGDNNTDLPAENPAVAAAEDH
T3 sequence (P24228 21-477): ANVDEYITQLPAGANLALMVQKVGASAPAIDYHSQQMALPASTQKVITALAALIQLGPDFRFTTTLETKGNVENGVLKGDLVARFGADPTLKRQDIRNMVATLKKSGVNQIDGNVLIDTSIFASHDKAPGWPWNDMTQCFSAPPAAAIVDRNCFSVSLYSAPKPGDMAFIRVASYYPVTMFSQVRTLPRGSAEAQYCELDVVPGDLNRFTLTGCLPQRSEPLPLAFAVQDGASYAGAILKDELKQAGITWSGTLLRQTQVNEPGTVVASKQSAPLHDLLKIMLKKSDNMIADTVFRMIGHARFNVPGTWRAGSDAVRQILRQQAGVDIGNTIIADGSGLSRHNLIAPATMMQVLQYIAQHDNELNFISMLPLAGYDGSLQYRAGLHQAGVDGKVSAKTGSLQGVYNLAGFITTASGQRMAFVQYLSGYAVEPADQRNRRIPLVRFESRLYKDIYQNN

Row | SMILES | EC50 (E. coli K12 PBP2) [µM] | EC50 (E. coli K12 PBP1b) [µM] | EC50 (E. coli K12 PBP4) [µM]
1 | CCN1CCN(C(=O)NC(C(=O)N[C@H]2Cc3ccc(S)c(C(=O)O)c3OB2O)c2csc(N)n2)C(=O)C1=O (stereo partly drawn) [Example 54, (3R)-3-(2-(2-aminothiazol-4-yl)-2-(4-ethyl-2,3-dioxopiperazine-1-carboxamido)acetamido)-2-hydroxy-7-mercapto-3,4-dihydro-2H-benzo[e][1,2]oxaborinine-8-carboxylic acid] | 30 to 500 | 10 to 100 | 30 to 500
2 | CCN1CCN(C(=O)NC(C(=O)N[C@H]2Cc3ccc(SCc4ccc(O)cc4)c(C(=O)O)c3OB2O)c2csc(N)n2)C(=O)C1=O (stereo partly drawn) [Example 55, (3R)-3-(2-(2-aminothiazol-4-yl)-2-(4-ethyl-2,3-dioxopiperazine-1-carboxamido)acetamido)-2-hydroxy-7-((4-hydroxybenzyl)thio)-3,4-dihydro-2H-benzo[e][1,2]oxaborinine-8-carboxylic acid] | 30 to 500 | > 100 | 30 to 500
